One experiment relates to GDP. In words: Stern-Volmer time-delayed luminescence quenching titration with GDP. In kind it is binding. The conditions noted are these: excitation 346 nm, time-delay 0.1 ms, probe 10 μM, water, Tris 10 mM, pH 7.0, 20° C., n=3, emission integrated 450-650 nm (Tb) or 550-750 (Eu). As for the experimental part: (§1) Unless otherwise noted, starting materials were obtained from commercial suppliers and used without further purification. Water was deionized and further purified by a Millipore cartridge system (resistivity 1.8×10^7Ω). All organic extracts were dried over anhydrous MgSO4 and solvents were removed with a rotary evaporator. Flash chromatography was performed on Salicycle Silica Gel (230-400 mesh) or Brockmann activated aluminum oxide (neutral, 60 mesh). ^1H NMR spectra were recorded on a Varian 300 or Varian 500 at 300 MHz or 500 MHz, respectively, and ^13C NMR spectra on a Varian 300 at 75 MHz; the residual solvent peak was used as an internal reference. Data for ^1H NMR are recorded as follows: chemical shift (δ, ppm), multiplicity (s, singlet; br s, broad singlet; d, doublet, t, triplet; q, quartet; m, multiplet), integration, coupling constant (Hz). Data for ^13C NMR are reported in terms of chemical shift (δ, ppm). Mass spectra (LR=lo2w resolution; HR=high resolution; MS-ESI=electrospray mass spectrometry) were recorded on a Bruker BioTOF II. Purity of lanthanide complexes was evaluated by high performance liquid chromatography (HPLC) using a Varian Microsorb 300-5 C18 250 mm×4.6 mm at a flow rate was 1.0 mL/min (see supporting information for spectra and solvent gradients). UV-Vis data was obtained on a Cary Bio 100 UV-Vis Spectrophotometer. Data was collected over the range of 200-800 nm. Fluorescence data was acquired on a Varian Cary Eclipse Fluorescence Spectrophotometer using a quartz cell with a path length of 10 mm, excitation slit width of 5 nm and emission slit width of 5 nm at T=20° C. Solutions were not degased prior to measurement of their luminescence spectra and lifetimes.

The next experiment deals with CDP. The experiment can be described thus: Stern-Volmer time-delayed luminescence quenching titration with CDP. The conditions noted are these: excitation 346 nm, time-delay 0.1 ms, probe 10 μM, water, Tris 10 mM, pH 7.0, 20° C., n=3, emission integrated 450-650 nm (Tb) or 550-750 (Eu). In kind it is binding. As to the method: as §1
The test system of the next experiment is CMP. The experiment can be described thus: Stern-Volmer time-delayed luminescence quenching titration with CMP. In kind it is binding. Conditions: excitation 346 nm, time-delay 0.1 ms, probe 10 μM, water, Tris 10 mM, pH 7.0, 20° C., n=3, emission integrated 450-650 nm (Tb) or 550-750 (Eu). As for the experimental part:
as §1

The test system of the next experiment is UTP. In words: Stern-Volmer time-delayed luminescence quenching titration with UTP. In kind it is binding. Conditions: excitation 346 nm, time-delay 0.1 ms, probe 10 μM, water, Tris 10 mM, pH 7.0, 20° C., n=3, emission integrated 450-650 nm (Tb) or 550-750 (Eu). As to the method: as §1
The subject of a further experiment is GTP. In words: Stern-Volmer time-delayed luminescence quenching titration with GTP. In kind it is binding. Conditions: for Stern-Volmer constant KSV with GTP: excitation 346 nm, time-delay 0.1 ms, probe 10 μM, water, Tris 10 mM, pH 7.0, 20° C., n=3, emission integrated 450-650 nm (Tb) or 550-750 (Eu). As for the experimental part:
as §1

Another experiment deals with CTP. The experiment can be described thus: Stern-Volmer time-delayed luminescence quenching titration with CTP. The conditions noted are these: excitation 346 nm, time-delay 0.1 ms, probe 10 μM, water, Tris 10 mM, pH 7.0, 20° C., n=3, emission integrated 450-650 nm (Tb) or 550-750 (Eu). In kind it is binding. As for the experimental part: as §1
A further experiment concerns ADP. The experiment can be described thus: Stern-Volmer time-delayed luminescence quenching titration with ADP. In kind it is binding. The conditions noted are these: for Stern-Volmer constant KSV with ADP: excitation 346 nm, time-delay 0.1 ms, probe 10 μM, water, Tris 10 mM, pH 7.0, 20° C., n=3, emission integrated 450-650 nm (Tb) or 550-750 (Eu). As to the method: as §1

For the next experiment, the system named is ATP. In words: Stern-Volmer time-delayed luminescence quenching titration with ATP. In kind it is binding. The conditions noted are these: for Stern-Volmer constant KSV with ATP: excitation 346 nm, time-delay 0.1 ms, probe 10 μM, water, Tris 10 mM, pH 7.0, 20° C., n=3, emission integrated 450-650 nm (Tb) or 550-750 (Eu); for log KSV for ATP: from Stern-Volmer constants of Table 2. As for the experimental part: as §1

In another experiment the test system is UMP. The experiment can be described thus: Stern-Volmer time-delayed luminescence quenching titration with UMP. In kind it is binding. Conditions: excitation 346 nm, time-delay 0.1 ms, probe 10 μM, water, Tris 10 mM, pH 7.0, 20° C., n=3, emission integrated 450-650 nm (Tb) or 550-750 (Eu). As for the experimental part: as §1
A further experiment deals with AMP. The experiment can be described thus: Stern-Volmer time-delayed luminescence quenching titration with AMP. The conditions noted are these: for Stern-Volmer constant KSV with AMP: excitation 346 nm, time-delay 0.1 ms, probe 10 μM, water, Tris 10 mM, pH 7.0, 20° C., n=3, emission integrated 450-650 nm (Tb) or 550-750 (Eu). In kind it is binding. As to the method:
as §1

In experiment [1] the test system is PKAc, the catalytic domain of protein kinase A. In words: Continuous monitoring of ATP to ADP conversion during phosphorylation of KRRWSAP-NH2 by PKAc. In kind it is biochemical. The conditions noted are these: both probes 10 μM, PKAc 1 μM, peptide 1.5 mM, ATP 1 mM, 37° C., 0-6 hours; Tb at 490 and 545 nm, Eu at 688 and 700 nm. As for the experimental part:
FIG. 29 illustrates an exemplary embodiment of continuous monitoring of ATP to ADP conversion during enzymatic phosphorylation of the peptide KRRWSAP-NH2 by its kinase PKAc. Experimental conditions: [Tb-DOTAm-Phen]^3+=10 μM, Eu-DOTA-Phen=10 μM, [PKAc]=1 μM, [amide-blocked KRRWSAP-NH2]=1.5 mM, [ATP]=1 mM, [Tris]=10 mM, [Brij-35]=0.05%, [MgCl2]=50 mM, [EGTA]=5 mM, [DTT]=2 mM, pH 7.0, T=37° C., excitation at 346 nm, time delay=0.1 ms. Reaction time: 0-6 hours.
The ability of the two lanthanide probes to monitor enzymatic reactions involving ATP or GTP directly and continuously was evaluated with PKAc, the catalytic domain of protein kinase A. PKAc is a serine-threonine protein kinase that is actively studied as a biological target in cancer therapy (Naviglio et al., Expert Opin. Ther. Targets, 2009, 13, 83-92). […] Phosphorylation of the substrate and conversion of ATP to ADP takes place only when all components are present in the buffer. […] [Tb-DOTAm-Phen]^3+ and Eu-DOTA-Phen are thus able to directly monitor kinases' activities by time-gated luminescence spectroscopy. […] It should be noted, however, that these probes are not intended for use in cells as the presence of more than two purine nucleotides would make the results hard to interpret.

The next experiment relates to UDP. The experiment can be described thus: Stern-Volmer time-delayed luminescence quenching titration with UDP. In kind it is binding. Conditions: excitation 346 nm, time-delay 0.1 ms, probe 10 μM, water, Tris 10 mM, pH 7.0, 20° C., n=3, emission integrated 450-650 nm (Tb) or 550-750 (Eu). As to the method: as §1
The next experiment deals with GMP. The experiment can be described thus: Stern-Volmer time-delayed luminescence quenching titration with GMP. In kind it is binding. Conditions: excitation 346 nm, time-delay 0.1 ms, probe 10 μM, water, Tris 10 mM, pH 7.0, 20° C., n=3, emission integrated 450-650 nm (Tb) or 550-750 (Eu). As to the method: as §1
The conditions of experiment [2]: Dickins et al., J. Am. Chem. Soc., 2002; cited from earlier work.

For the compound Tb-PhenDOTAm, the “Stern-Volmer constant KSV with GDP” value is recorded as 9.84 ± 0.05 with GDP and 9.84(5) in the experiment with GDP (listed as [Tb-DOTAm-Phen]^3+). The “Stern-Volmer constant KSV with CDP” value is 0.149 ± 0.009 in the experiment with CDP and 0.149(9) with CDP (listed as [Tb-DOTAm-Phen]^3+). Moreover, the results for the “Stern-Volmer constant KSV with CMP” value in the experiment on CMP and in the experiment on CMP (listed as [Tb-DOTAm-Phen]^3+) were 0.139 ± 0.006 and 0.139(6), respectively. Moreover, the “Stern-Volmer constant KSV with UTP” value is reported as 0.047 ± 0.002 with UTP and 0.047(2) in the experiment with UTP (listed as [Tb-DOTAm-Phen]^3+). Also, the “increase of apparent binding affinity for GTP over that of the neutral complex (12)” value with GTP (+3 charged probe (1) versus neutral complex (12)) was found to be 300 fold. In addition, the “Stern-Volmer constant KSV with GTP” value in the experiment on GTP is on record as 33.1 ± 0.1; in the experiment with GTP (listed as [Tb-DOTAm-Phen]^3+), 33.1(1). Moreover, the figures for the “Stern-Volmer constant KSV with CTP” value with CTP and in the experiment on CTP (listed as [Tb-DOTAm-Phen]^3+) were 0.103 ± 0.007 and 0.103(7), respectively. Further, the “phosphorescence quenched by ADP” value in the experiment on ADP (1 mM ADP) was 47.4%. Also, the “Stern-Volmer constant KSV with ADP” value in the experiment with ADP was 0.85 ± 0.02; with ADP (listed as [Tb-DOTAm-Phen]^3+) it was 0.85(2). The “time-gated luminescence quenched by ATP” value in the experiment on ATP (1 mM ATP) is 59.7%. Besides, the “Stern-Volmer constant KSV with ATP” value was 1.28 ± 0.05 in the experiment with ATP and 1.28(5) in the experiment with ATP (listed as [Tb-DOTAm-Phen]^3+). In addition, the “log KSV for ATP” value in the experiment on ATP turned out to be 0.11. Further, the figures for the “Stern-Volmer constant KSV with UMP” value in the experiment on UMP and in the experiment with UMP (listed as [Tb-DOTAm-Phen]^3+) were 0.070 ± 0.004 and 0.070(4), respectively. Also, the “phosphorescence quenched by AMP” value in the experiment with AMP (1 mM AMP) is listed as 31.0%. The figures for the “Stern-Volmer constant KSV with AMP” value in the experiment on AMP and in the experiment on AMP (listed as [Tb-DOTAm-Phen]^3+) were 0.397 ± 0.005 and 0.397(5), respectively. In [1], the “time-gated luminescence as the PKAc reaction proceeds (ADP:ATP ratio increases)” value is given as “increases”. For the same compound, the results for the “Stern-Volmer constant KSV with UDP” value in the experiment with UDP and in the experiment on UDP (listed as [Tb-DOTAm-Phen]^3+) were 0.065 ± 0.007 and 0.065(7), respectively. For the same compound, the “Stern-Volmer constant KSV with GMP” value is given as 2.84 ± 0.01 with GMP and 2.84(1) in the experiment on GMP (listed as [Tb-DOTAm-Phen]^3+).

Turning to `O=C([O-])CN1CCN(CC(=O)[O-])CCN(CC(=O)O)CCN(CC(=O)[O-])CC1.[Gd+3]` [Gd-DOTA], the “log Ka with biphosphate” value in [2] is 2.2.

As to Eu-DOTA-Phen, the “Stern-Volmer constant KSV with GDP” value in the experiment on GDP is 0.164(3). The “Stern-Volmer constant KSV with CDP” value in the experiment with CDP was 0.008(1). Also, the “Stern-Volmer constant KSV with CMP” value in the experiment on CMP is on record as 0.008(1). Also, the “Stern-Volmer constant KSV with UTP” value in the experiment on UTP is given as 0.001(2). In the experiment with GTP, the “Stern-Volmer constant KSV with GTP” value is 0.099(1). The “Stern-Volmer constant KSV with CTP” value in the experiment on CTP is recorded as 0.006(1). In the experiment with ADP, the “Stern-Volmer constant KSV with ADP” value is given as 0.058(1). Besides, in the experiment on ATP, the “Stern-Volmer constant KSV with ATP” value is 0.065(1) and the “log KSV for ATP” value is given as −1.2. The “Stern-Volmer constant KSV with UMP” value with UMP is on record as 0.007(2). In the experiment on AMP, the “Stern-Volmer constant KSV with AMP” value is recorded as 0.053(1). The “time-gated luminescence as the PKAc reaction proceeds (ADP:ATP ratio increases)” value in experiment [1] is listed as “remains constant”. Further, the “Stern-Volmer constant KSV with UDP” value in the experiment with UDP was 0.002(2). Further, the “Stern-Volmer constant KSV with GMP” value in the experiment on GMP is listed as 0.118(2).

The values are drawn from patent US9194802B2, “Luminescent probes having a phenanthridinyl antenna, and methods of use” (REGENTS OF THE UNIVERSITY OF MINNESOTA, priority 2012, dated 2015).
